Assay results taken from patent US20260232767A1, “INTERLEUKIN-23 RECEPTOR ANTAGONIST PEPTIDES FOR USE IN THE TREATMENT OF PSORIASIS” (Janssen Pharmaceutica NV, priority 2023, published 2026).

System: subjects with moderate-to-severe plaque psoriasis
Assay: PSSD symptom and sign scores, Example 2
Type: in vivo, human
Settings: for Change from Baseline in PSSD Sign Score, LSMean / Change from Baseline in PSSD Symptom Score, LSMean: MMRM

Compound: CC(=O)NCCCC[C@@H]1NC(=O)[C@H](Cc2c[nH]c3c(C)cccc23)NC(=O)[C@H]([C@@H](C)O)NC(=O)[C@H](CC(N)=O)NC(=O)[C@@H](NC(C)=O)C(C)(C)SSC(C)(C)[C@@H](C(=O)N[C@@H](Cc2ccc(OCCN)cc2)C(=O)N[C@@H](Cc2ccc3ccccc3c2)C(=O)NC2(C(=O)N[C@@H](CCC(=O)O)C(=O)N[C@@H](CC(N)=O)C(=O)N[C@@H](Cc3cccnc3)C(=O)N(C)CC(N)=O)CCOCC2)NC1=O [IL-23 receptor antagonist peptide, Ac-[Pen]*-N-T-[W(7-Me)]-[Lys(Ac)]-[Pen]*-Phe[4-(2-aminoethoxy)]-[2-Nal]-[THP]-E-N-[3-Pal]-Sarc-NH2 (*[Pen]-[Pen]* formdisulfidebond)]
- Change from Baseline in PSSD Symptom Score, Mean (Week 4, 50 mg QD): −23.6
- Change from Baseline in PSSD Symptom Score, Median (Week 4, 50 mg QD): −23.0
- Change from Baseline in PSSD Sign Score, LSMean (Week 4, 50 mg QD): −28.0
- Change from Baseline in PSSD Symptom Score, LSMean (Week 4, 50 mg QD): −23.4
- Change from Baseline in PSSD Sign Score, Mean (Week 4, 100 mg BID): −33.3
- Change from Baseline in PSSD Sign Score, Median (Week 4, 100 mg BID): −32.0
- Change from Baseline in PSSD Symptom Score, Mean (Week 4, 100 mg BID): −26.1
- Change from Baseline in PSSD Symptom Score, Median (Week 4, 100 mg BID): −22.0
- Subjects Achieving PSSD Symptom Score 0 (%) (Week 4, 100 mg BID, Baseline Symptom Score ≥1, N=42): (4.8%)
- Change from Baseline in PSSD Sign Score, LSMean (Week 4, 100 mg BID): −32.9
- Change from Baseline in PSSD Symptom Score, LSMean (Week 4, 100 mg BID): −24.4
- Change from Baseline in PSSD Sign Score, Mean (Week 4, 100 mg QD): −31.1
- Change from Baseline in PSSD Sign Score, Median (Week 4, 100 mg QD): −32.5
- Change from Baseline in PSSD Symptom Score, Mean (Week 4, 100 mg QD): −19.4
- Change from Baseline in PSSD Symptom Score, Median (Week 4, 100 mg QD): −17.0
- Subjects Achieving PSSD Sign Score 0 (%) (Week 4, 100 mg QD, Baseline Sign Score ≥1, N=43): (2.3%)
- Subjects Achieving PSSD Symptom Score 0 (%) (Week 4, 100 mg QD, Baseline Symptom Score ≥1, N=43): (2.3%)
- Change from Baseline in PSSD Sign Score, LSMean (Week 4, 100 mg QD): −33.8
- Change from Baseline in PSSD Symptom Score, LSMean (Week 4, 100 mg QD): −24.5
- Change from Baseline in PSSD Sign Score, Mean (Week 8, 25 mg BID): −33.8
- Change from Baseline in PSSD Sign Score, Median (Week 8, 25 mg BID): −38.0
- Change from Baseline in PSSD Symptom Score, Mean (Week 8, 25 mg BID): −27.5
- Change from Baseline in PSSD Symptom Score, Median (Week 8, 25 mg BID): −22.0
- Subjects Achieving PSSD Sign Score 0 (%) (Week 8, 25 mg BID, Baseline Sign Score ≥1, N=41): (2.4%)
- Subjects Achieving PSSD Symptom Score 0 (%) (Week 8, 25 mg BID, Baseline Symptom Score ≥1, N=41): (7.3%)
- Change from Baseline in PSSD Sign Score, LSMean (Week 8, 25 mg BID): −34.1
- Change from Baseline in PSSD Symptom Score, LSMean (Week 8, 25 mg BID): −27.5
- Change from Baseline in PSSD Sign Score, Mean (Week 8, 25 mg QD): −33.0
- Change from Baseline in PSSD Sign Score, Median (Week 8, 25 mg QD): −40.0
- Change from Baseline in PSSD Symptom Score, Mean (Week 8, 25 mg QD): −32.3
- Change from Baseline in PSSD Symptom Score, Median (Week 8, 25 mg QD): −32.0
- Subjects Achieving PSSD Sign Score 0 (%) (Week 8, 25 mg QD, Baseline Sign Score ≥1, N=43): (4.7%)
- Subjects Achieving PSSD Symptom Score 0 (%) (Week 8, 25 mg QD, Baseline Symptom Score ≥1, N=43): (9.3%)
- Change from Baseline in PSSD Sign Score, LSMean (Week 8, 25 mg QD): −29.0
- Change from Baseline in PSSD Symptom Score, LSMean (Week 8, 25 mg QD): −27.1
- Change from Baseline in PSSD Sign Score, Mean (Week 8, 50 mg QD): −39.7
- Change from Baseline in PSSD Sign Score, Median (Week 8, 50 mg QD): −40.5
- Change from Baseline in PSSD Symptom Score, Mean (Week 8, 50 mg QD): −35.0
- Change from Baseline in PSSD Symptom Score, Median (Week 8, 50 mg QD): −36.0
- Subjects Achieving PSSD Sign Score 0 (%) (Week 8, 50 mg QD, Baseline Sign Score ≥1, N=43): (7.0%)
- Subjects Achieving PSSD Symptom Score 0 (%) (Week 8, 50 mg QD, Baseline Symptom Score ≥1, N=42): (9.5%)
- Change from Baseline in PSSD Sign Score, LSMean (Week 8, 50 mg QD): −40.1
- Change from Baseline in PSSD Symptom Score, LSMean (Week 8, 50 mg QD): −34.3
- Change from Baseline in PSSD Sign Score, Mean (Week 8, 100 mg BID): −48.3
- Change from Baseline in PSSD Sign Score, Median (Week 8, 100 mg BID): −52.0
- Change from Baseline in PSSD Symptom Score, Mean (Week 8, 100 mg BID): −41.7
- Change from Baseline in PSSD Symptom Score, Median (Week 8, 100 mg BID): −42.0
- Subjects Achieving PSSD Sign Score 0 (%) (Week 8, 100 mg BID, Baseline Sign Score ≥1, N=42): (9.5%)
- Subjects Achieving PSSD Symptom Score 0 (%) (Week 8, 100 mg BID, Baseline Symptom Score ≥1, N=42): (16.7%)
- Change from Baseline in PSSD Sign Score, LSMean (Week 8, 100 mg BID): −47.5
- Change from Baseline in PSSD Symptom Score, LSMean (Week 8, 100 mg BID): −39.2
- Change from Baseline in PSSD Sign Score, Mean (Week 8, 100 mg QD): −40.2
- Change from Baseline in PSSD Sign Score, Median (Week 8, 100 mg QD): −43.0
- Change from Baseline in PSSD Symptom Score, Mean (Week 8, 100 mg QD): −27.8
- Change from Baseline in PSSD Symptom Score, Median (Week 8, 100 mg QD): −26.0
- Subjects Achieving PSSD Sign Score 0 (%) (Week 8, 100 mg QD, Baseline Sign Score ≥1, N=43): (7.0%)
- Subjects Achieving PSSD Symptom Score 0 (%) (Week 8, 100 mg QD, Baseline Symptom Score ≥1, N=43): (14.0%)
- Change from Baseline in PSSD Sign Score, LSMean (Week 8, 100 mg QD): −43.2
- Change from Baseline in PSSD Symptom Score, LSMean (Week 8, 100 mg QD): −33.3
- Change from Baseline in PSSD Sign Score, Mean (Week 12, 25 mg BID): −38.5
- Change from Baseline in PSSD Sign Score, Median (Week 12, 25 mg BID): −40.0
- Change from Baseline in PSSD Symptom Score, Mean (Week 12, 25 mg BID): −32.0
- Change from Baseline in PSSD Symptom Score, Median (Week 12, 25 mg BID): −28.0
- Subjects Achieving PSSD Sign Score 0 (%) (Week 12, 25 mg BID, Baseline Sign Score ≥1, N=41): (7.3%)
- Subjects Achieving PSSD Symptom Score 0 (%) (Week 12, 25 mg BID, Baseline Symptom Score ≥1, N=41): (7.3%)
- Change from Baseline in PSSD Sign Score, LSMean (Week 12, 25 mg BID): −39.0
- Change from Baseline in PSSD Symptom Score, LSMean (Week 12, 25 mg BID): −32.3
- Change from Baseline in PSSD Sign Score, Mean (Week 12, 25 mg QD): −34.8
- Change from Baseline in PSSD Sign Score, Median (Week 12, 25 mg QD): −40.0
- Change from Baseline in PSSD Symptom Score, Mean (Week 12, 25 mg QD): −31.5
- Change from Baseline in PSSD Symptom Score, Median (Week 12, 25 mg QD): −34.0
- Subjects Achieving PSSD Symptom Score 0 (%) (Week 12, 25 mg QD, Baseline Symptom Score ≥1, N=43): (14.0%)
- Change from Baseline in PSSD Sign Score, LSMean (Week 12, 25 mg QD): −30.7
- Change from Baseline in PSSD Symptom Score, LSMean (Week 12, 25 mg QD): −25.8
- Change from Baseline in PSSD Sign Score, Mean (Week 12, 50 mg QD): −42.5
- Change from Baseline in PSSD Sign Score, Median (Week 12, 50 mg QD): −46.0
- Change from Baseline in PSSD Symptom Score, Mean (Week 12, 50 mg QD): −36.3
- Change from Baseline in PSSD Symptom Score, Median (Week 12, 50 mg QD): −37.0
- Subjects Achieving PSSD Sign Score 0 (%) (Week 12, 50 mg QD, Baseline Sign Score ≥1, N=43): (4.7%)
- Subjects Achieving PSSD Symptom Score 0 (%) (Week 12, 50 mg QD, Baseline Symptom Score ≥1, N=42): (19.0%)
- Change from Baseline in PSSD Sign Score, LSMean (Week 12, 50 mg QD): −43.0
- Change from Baseline in PSSD Symptom Score, LSMean (Week 12, 50 mg QD): −35.7
- Change from Baseline in PSSD Sign Score, Mean (Week 12, 100 mg BID): −49.9
- Change from Baseline in PSSD Sign Score, Median (Week 12, 100 mg BID): −53.0
- Change from Baseline in PSSD Symptom Score, Mean (Week 12, 100 mg BID): −42.3
- Change from Baseline in PSSD Symptom Score, Median (Week 12, 100 mg BID): −41.0
- Subjects Achieving PSSD Sign Score 0 (%) (Week 12, 100 mg BID, Baseline Sign Score ≥1, N=42): (11.9%)
- Subjects Achieving PSSD Symptom Score 0 (%) (Week 12, 100 mg BID, Baseline Symptom Score ≥1, N=42): (26.2%)
- Change from Baseline in PSSD Sign Score, LSMean (Week 12, 100 mg BID): −48.8
- Change from Baseline in PSSD Symptom Score, LSMean (Week 12, 100 mg BID): −39.5
- Change from Baseline in PSSD Sign Score, Mean (Week 12, 100 mg QD): −39.1
- Change from Baseline in PSSD Sign Score, Median (Week 12, 100 mg QD): −45.0
- Change from Baseline in PSSD Symptom Score, Mean (Week 12, 100 mg QD): −27.9
- Change from Baseline in PSSD Symptom Score, Median (Week 12, 100 mg QD): −27.0
- Subjects Achieving PSSD Sign Score 0 (%) (Week 12, 100 mg QD, Baseline Sign Score ≥1, N=43): (7.0%)
- Subjects Achieving PSSD Symptom Score 0 (%) (Week 12, 100 mg QD, Baseline Symptom Score ≥1, N=43): (20.9%)
- Change from Baseline in PSSD Sign Score, LSMean (Week 12, 100 mg QD): −42.2
- Change from Baseline in PSSD Symptom Score, LSMean (Week 12, 100 mg QD): −34.7
- Change from Baseline in PSSD Sign Score, Mean (Week 16, 25 mg BID): −41.8
- Change from Baseline in PSSD Sign Score, Median (Week 16, 25 mg BID): −36.5
- Change from Baseline in PSSD Symptom Score, Mean (Week 16, 25 mg BID): −34.0
- Change from Baseline in PSSD Symptom Score, Median (Week 16, 25 mg BID): −28.0
- Subjects Achieving PSSD Sign Score 0 (%) (Week 16, 25 mg BID, Baseline Sign Score ≥1, N=41): (9.8%)
- Subjects Achieving PSSD Symptom Score 0 (%) (Week 16, 25 mg BID, Baseline Symptom Score ≥1, N=41): (17.1%)
- Change from Baseline in PSSD Sign Score, LSMean (Week 16, 25 mg BID): −40.9
- Change from Baseline in PSSD Symptom Score, LSMean (Week 16, 25 mg BID): −32.7
- Change from Baseline in PSSD Sign Score, Mean (Week 16, 25 mg QD): −38.6
- Change from Baseline in PSSD Sign Score, Median (Week 16, 25 mg QD): −43.0
- Change from Baseline in PSSD Symptom Score, Mean (Week 16, 25 mg QD): −35.8
- Change from Baseline in PSSD Symptom Score, Median (Week 16, 25 mg QD): −34.0
